# Patent publication US11584744B2 (UNIVERSITY OF WASHINGTON, priority 2017, dated 2023)
# “And” between values parts separate entries of the source, which are not always exact repeats. Identical values can stand only once. Like-named read-outs stand apart in the source and are kept apart here.
# Experiments:
# [1] = system: S. aureus MSSA (ATCC 29213); experiment: MIC susceptibility testing; format: cell-based, Staphylococcus aureus; conditions: for MIC: Staphylococcus aureus
# [2] = system: S. aureus MRSA (ATCC 33591); experiment: MIC susceptibility testing; format: cell-based, Staphylococcus aureus; conditions: for MIC: Staphylococcus aureus
# Method in brief: (§1)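 CLSI broth microdilution with two-fold compound dilutions, in triplicate; cells added in medium at 1×10^6 CFUs/mL, DMSO ≤0.5%. Media: MHB for S. aureus, CA-MHB for E. coli and E. faecium, CA-MHB plus 3% laked horse blood for S. pyogenes (5% CO2).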
# [3] = Cytotoxicity testing on mammalian cells (AlamarBlue, 48 hours); format: cell-based; conditions: human
# Protocol: Cytotoxicity testing on mammalian cells: Compounds were assayed for cytotoxicity against CRL-8155 (human lymphoblasts) and HepG2 cells (human hepatocellular carcinoma). Cells were exposed to serial dilutions of compounds for 48 hours and toxicity was quantified using AlamarBlue (ThermoFisher Scientific, Waltham, Mass.). Assays were performed in quadruplicate and EC50 values were calculated with non-linear regression methods using software by the Collaborative Drug Database (Burlingame, Calif. www.collaborativedrug.com)
# E. faecalis (ATCC 29212) = experiment: MIC susceptibility testing; format: cell-based; conditions: Enterococcus faecalis, ATCC29212; read-out: E. faecalis (ATCC 29212) MIC
# S. pyogenes (ATCC 19615) = experiment: MIC susceptibility testing; format: cell-based; conditions: Streptococcus pyogenes
# [4] = system: S. epidermidis (ATCC 12228); experiment: MIC susceptibility testing; format: cell-based; conditions: Staphylococcus epidermidis, ATCC12228; read-out: S. epidermidis (ATCC 12228) MIC
# E. faecium (ATCC 19434) = experiment: MIC susceptibility testing; format: cell-based; conditions: Enterococcus faecium, ATCC19434; read-out: E. faecium (ATCC 19434) MIC
# Method in brief: as §1
# [5] = system: S. epidermidis (ATCC 49134); experiment: MIC susceptibility testing; format: cell-based; conditions: Staphylococcus epidermidis, ATCC49134; read-out: S. epidermidis (ATCC 49134) MIC
# [6] = Liver microsome stability; format: in vitro ADME
# Protocol: Microsome stability. Liver microsome stability assays were done by contract research laboratory, Wuxi AppTec Co. (Hubei, China). Briefly, compounds at 1 μM concentration were incubated in singlet with human or CD-1 mouse liver microsomes for 6 time points (0, 5, 10, 20, 30, and 60 min). Loss of parent compound was quantified by liquid chromatography/tandem mass spectrometry.
# S. aureus = experiment: Serum shift assays (MIC with and without 50% human serum); format: cell-based, Staphylococcus aureus; conditions: for MIC: Staphylococcus aureus
# Method in brief: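 MICs run in triplicate with and without 50% heat-inactivated pooled human serum in MHB. Threefold compound dilutions (≤0.5% DMSO), inoculum from 1*10^8 CFUs/mL diluted 1:100, incubated ~20 h at 37° C. MIC = lowest concentration giving ≥90% growth inhibition.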
# [7] = system: E. faecium VRE (ATCC 51559); experiment: MIC susceptibility testing; format: cell-based, Enterococcus faecium; conditions: for MIC: Enterococcus faecium
# Method in brief: as §1
# [8] = 18 h, read-out: S. aureus MSSA (ATCC 29213) MIC
# [9] = read-out: S. aureus MRSA (ATCC 33591) MIC
# [10] = CRL-8155 cells (human lymphoblasts), read-out: Mamm. cells (CRL8155) CC50
# [11] = HepG2 cells (human hepatocellular carcinoma), read-out: Mamm. cells (HepG2) CC50
# [12] = ATCC19615, 18 h, medium with 3% laked horse blood, read-out: S. pyogenes (ATCC 19615) MIC
# [13] = human, human liver microsomes, read-out: Microsome stability: Human T½
# [14] = mouse liver microsomes, CD-1 mouse, read-out: Microsome stability: Mouse T½
# [15] = 50% human serum, read-out: Avg MIC ± SEM (+50% serum)
# [16] = no serum, read-out: Avg MIC ± SEM (no serum)
# [17] = read-out: E. faecium VRE (ATCC 51559) MIC
# [18] = MRSA ATCC33591, read-out: (G) MRSA (ATCC33591) MIC
# [19] = ATCC19615, S. pyogenes ATCC 19615, read-out: (H) S. pyogenes (ATCC 19615) MIC
# [20] = E. faecium ATCC 51559, read-out: (I) E. faecium (ATCC 51559) MIC
SMILES,"MIC [1, 8]","MIC [2, 9]","CC50 at 48 h [3, 10]","CC50 at 48 h [3, 11]",MIC (E. faecalis (ATCC 29212)),MIC (S. pyogenes (ATCC 19615); [12]),MIC [4],MIC (E. faecium (ATCC 19434)),MIC [5],"half-life at 1 μM [6, 13]","half-life at 1 μM [6, 14]",MIC (S. aureus; [15]),MIC (S. aureus; [16]),"MIC [7, 17]","MIC [2, 18]",further results
"Fc1ccc2nc(NCCCN[C@@H]3CCNc4c(Cl)cc(Cl)cc43)[nH]c2n1 [Compound 1717, (4R)-6,8-dichloro—N-[3-({5-fluoro-3H-imidazo[4,5-b]pyridin-2-yl}amino)propyl]-1,2,3,4-tetrahydroquinolin-4-amine, reference compound]",0.156 µg/mL,0.078 µg/mL,5.8 µg/mL,10.4 µg/mL,0.078 µg/mL,2.5 µg/mL,0.156 µg/mL,0.039 µg/mL,0.313 µg/mL,10.3 min,10.3 min,~2 µg/mL,0.088 ± 0.02 µg/mL,0.156 µg/mL,–,MIC ([1]; read-out: MIC against S. aureus): 0.156 µg/mL; Avg MIC ± SEM (+50% serum) (S. aureus; 50% human serum): 2.066 ± 0.19 µg/mL
"CCn1c(Cc2ccc(OC)cc2Cl)cn(Cc2nc3nc(Cl)ccc3[nH]2)c1=O [Compound 2093, 1-({5-chloro-1H-imidazo[4,5-b]pyridin-2-yl}methyl)-4-[(2-chloro-4-methoxyphenyl)methyl]-3-ethyl-2,3-dihydro-1H-imidazol-2-one]",0.039 µg/mL,0.313 µg/mL,> 21.6 µg/mL,> 21.6 µg/mL,0.156 µg/mL,1.25 µg/mL,0.625 µg/mL,0.078 µg/mL,1.25 µg/mL,8.3 min,3.2 min,9.59 ± 1.71 µg/mL,0.036 ± 0.01 µg/mL,0.078 µg/mL,0.123 µg/mL,"(G) MRSA (ATCC33591) MIC ([2]; MRSA ATCC33591): 0.225 µg/mL; MIC (S. pyogenes (ATCC 19615); [19]): 0.678 µg/mL; (I) E. faecium (ATCC 51559) MIC ([7]; E. faecium ATCC 51559): 0.0387 µg/mL; MIC [7, 20]: 0.0507 µg/mL"
"CCn1c(Cc2ccc(Cl)cc2Cl)cn(Cc2nc3nc(F)ccc3[nH]2)c1=O [Compound 2062, 4-[(2,4-dichlorophenyl)methyl]-3-ethyl-1-({5-fluoro-1H-imidazo[4,5-b]pyridin-2-yl}methyl)-2,3-dihydro-1H-imidazol-2-one]",0.078 µg/mL,–,> 21 µg/mL,> 21 µg/mL,1.25 µg/mL,–,–,0.313 µg/mL,1.25 µg/mL,12.6 min,8.4 min,11.8 ± 4.03 µg/mL,0.057 ± 0.004 µg/mL,0.313 µg/mL,–,–
"COc1cc(Cl)c(-c2cccc3nc(Cc4nc5nc(Cl)ccc5[nH]4)cn23)cc1OC [Compound 2144, 2-({5-chloro-1H-imidazo[4,5-b]pyridin-2-yl}methyl)-5-(2-chloro-4,5-dimethoxyphenyl)imidazo[1,2-a]pyridine]",0.0195 µg/mL,0.039 µg/mL,> 11.3 µg/mL,> 11.3 µg/mL,0.0195 µg/mL,1.25 µg/mL,0.156 µg/mL,0.0195 µg/mL,0.313 µg/mL,16.4 min,6.5 min,~2 µg/mL,0.036 ± 0.01 µg/mL,0.0195 µg/mL,0.033 µg/mL,"(G) MRSA (ATCC33591) MIC ([2]; MRSA ATCC33591): 0.0216, μg/mL; Avg MIC ± SEM (+50% serum) (S. aureus; 50% human serum): 2.06 µg/mL and 2.055 ± 0.51 µg/mL; (I) E. faecium (ATCC 51559) MIC ([7]; E. faecium ATCC 51559): 0.0140, μg/ml; MIC [7, 20]: 0.0126 µg/mL"
"CCn1c(Cc2ccc(OC)cc2Cl)cn(Cc2nc3nc(F)ccc3[nH]2)c1=O [Compound 2114, 4-[(2-chloro-4-methoxyphenyl)methyl]-3-ethyl-1-({5-fluoro-1H-imidazo[4,5-b]pyridin-2-yl}methyl)-2,3-dihydro-1H-imidazol-2-one]",0.313 µg/mL,–,> 20.8 µg/mL,> 20.8 µg/mL,0.625 µg/mL,–,1.25 µg/mL,0.078 µg/mL,1.25 µg/mL,15.2 min,7.7 min,–,–,0.156 µg/mL,1.53 µg/mL,"(F) S. aureus (ATCC 29213) MIC ([1]; S. aureus ATCC 29213): 0.192 µg/mL; MIC ([1]; S. aureus ATCC 29213, read-out: (F) S. aureus (ATCC 29213) MIC): 0.129 µg/mL; MIC (S. pyogenes (ATCC 19615); [19]): 0.754 µg/mL"
"Fc1ccc2nc(NCCCNCc3cc(Cl)cc(Cl)c3)[nH]c2n1 [Compound 1614, [(3,5-dichlorophenyl)methyl][3-({5-fluoro-3H-imidazo[4,5-b]pyridin-2-yl}amino)propyl]amine]",2.5 µg/mL,5 µg/mL,14.8 µg/mL,> 18.4 µg/mL,1.25 µg/mL,> 10 µg/mL,5 µg/mL,0.625 µg/mL,10 µg/mL,9.8 min,6.6 min,42.7 ± 4.1 µg/mL,2.47 ± 0.35 µg/mL,0.625 µg/mL,–,–
"CC(=O)NC[C@H]1CN(c2ccc(N3CCOCC3)c(F)c2)C(=O)O1 [LNZ, linezolid]",2.5 µg/mL,1.25 µg/mL,> 33.7 µg/mL,> 33.7 µg/mL,2.5 µg/mL,1.25 µg/mL,0.625 µg/mL,2.5 µg/mL,0.625 µg/mL,–,–,1.89 ± 0.1 µg/mL,1.57 ± 0.1 µg/mL,1.25 µg/mL,–,–
